Source: PMC6832503, “Synthesis of Novel Nicotinic Ligands with Multimodal Action: Targeting Acetylcholine α4β2, Dopamine and Serotonin Transporters” (Molecules, 2019)
Counter-ions that a name gives are not always drawn.

How the values were obtained:
α4β2 nAChR = target: T1, α4β2 nAChR (Rattus norvegicus, UniProt P09483+P12390); conditions: bupropion included as comparative value, not used in the trial; cited from earlier work
T1 construct: the rat complete brain P1 fraction (occupying 2 mg of wet tissue for each assay); from tissue; host or cells: whole rat brain, synaptosome pellet (fraction P1)
T1 sequence (P09483 31-630): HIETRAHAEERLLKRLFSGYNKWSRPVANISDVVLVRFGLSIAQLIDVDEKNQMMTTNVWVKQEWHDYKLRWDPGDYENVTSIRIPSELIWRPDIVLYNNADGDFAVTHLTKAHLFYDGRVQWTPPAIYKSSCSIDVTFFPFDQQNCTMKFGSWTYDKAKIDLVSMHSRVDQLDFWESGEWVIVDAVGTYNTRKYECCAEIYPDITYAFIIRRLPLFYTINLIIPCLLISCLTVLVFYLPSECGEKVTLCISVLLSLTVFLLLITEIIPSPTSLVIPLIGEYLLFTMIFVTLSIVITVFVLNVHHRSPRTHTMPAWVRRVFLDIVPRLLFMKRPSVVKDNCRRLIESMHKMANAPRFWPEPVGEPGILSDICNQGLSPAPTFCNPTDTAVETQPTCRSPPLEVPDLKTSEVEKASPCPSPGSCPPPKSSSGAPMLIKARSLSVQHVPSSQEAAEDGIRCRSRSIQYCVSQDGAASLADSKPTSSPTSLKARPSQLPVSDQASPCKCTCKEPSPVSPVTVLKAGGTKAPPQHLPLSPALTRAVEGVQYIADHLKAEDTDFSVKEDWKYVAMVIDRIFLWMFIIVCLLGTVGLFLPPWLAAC
T1 sequence (P12390 25-500): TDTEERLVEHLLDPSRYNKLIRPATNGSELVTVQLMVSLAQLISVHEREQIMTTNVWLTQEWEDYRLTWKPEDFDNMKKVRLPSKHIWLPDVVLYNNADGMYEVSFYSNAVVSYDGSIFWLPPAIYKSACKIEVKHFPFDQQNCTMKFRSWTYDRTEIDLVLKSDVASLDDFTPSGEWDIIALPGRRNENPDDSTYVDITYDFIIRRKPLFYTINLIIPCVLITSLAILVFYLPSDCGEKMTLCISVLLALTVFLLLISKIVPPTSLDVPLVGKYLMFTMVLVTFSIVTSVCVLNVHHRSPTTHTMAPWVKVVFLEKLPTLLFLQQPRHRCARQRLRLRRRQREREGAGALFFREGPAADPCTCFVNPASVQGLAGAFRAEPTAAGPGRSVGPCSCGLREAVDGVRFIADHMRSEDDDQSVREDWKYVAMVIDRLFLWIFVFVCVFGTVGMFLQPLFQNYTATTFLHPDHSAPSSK

SMILES: CN1CCCC1CCOC(=O)c1cccc(F)c1 (racemic) (as salt: hydrochloride) [Compound 8, (±)-2-(1-Methyl-2-pyrrolidinyl)ethyl 3-fluorobenzoate]
- melting point: 106.8 to 107.5 °C

SMILES: CN1CCCC1CCOC(=O)c1cccc(Cl)c1 (racemic) (as salt: hydrochloride) [Compound 9, (±)-2-(1-Methyl-2-pyrrolidinyl)ethyl 3-chlorobenzoate]
- melting point: 144.7 to 146.2 °C

SMILES: CN1CCCC1CCOC(=O)Cc1ccccc1 (racemic) (as salt: hydrochloride) [Compound 16, (±)-2-(-1-Methyl-2-pyrrolidinyl)ethyl 2-phenylacetate]
- melting point: 86.7 to 87.4 °C

SMILES: CN1CCCC1CCOC(=O)c1ccc2ccccc2c1 (racemic) (as salt: hydrochloride) [Compound 19, (±)-2-(1-Methyl-2-pyrrolidinyl)ethyl 2-naphthoate]
- melting point: 155.6 to 157.4 °C

SMILES: CN1CCCC1CCOC(=O)C(c1ccccc1)c1ccccc1 (racemic) (as salt: hydrochloride) [Compound 21, (±)-2-(-1-Methyl-2-pyrrolidinyl)ethyl 2,2-diphenylacetate]
- melting point: 115.3 to 117.2 °C

SMILES: CC(NC(C)(C)C)C(=O)c1cccc(Cl)c1 (stereo not drawn) [Bupropion]
- Ki (α4β2 nAChR): 10 µM
